Source: publication PMC8911752, “The Synthesis and Initial Evaluation of MerTK Targeted PET Agents” (Molecules, 2022)

Columns and labels:
Type in all cases: biochemical
[1] = molecular target: T1, Axl (Homo sapiens, UniProt P30530); test: Microcapillary electrophoresis (MCE) kinase assay, Axl; details: ATP at Km, mean of two or more independent assays
T1 sequence (P30530 26-894): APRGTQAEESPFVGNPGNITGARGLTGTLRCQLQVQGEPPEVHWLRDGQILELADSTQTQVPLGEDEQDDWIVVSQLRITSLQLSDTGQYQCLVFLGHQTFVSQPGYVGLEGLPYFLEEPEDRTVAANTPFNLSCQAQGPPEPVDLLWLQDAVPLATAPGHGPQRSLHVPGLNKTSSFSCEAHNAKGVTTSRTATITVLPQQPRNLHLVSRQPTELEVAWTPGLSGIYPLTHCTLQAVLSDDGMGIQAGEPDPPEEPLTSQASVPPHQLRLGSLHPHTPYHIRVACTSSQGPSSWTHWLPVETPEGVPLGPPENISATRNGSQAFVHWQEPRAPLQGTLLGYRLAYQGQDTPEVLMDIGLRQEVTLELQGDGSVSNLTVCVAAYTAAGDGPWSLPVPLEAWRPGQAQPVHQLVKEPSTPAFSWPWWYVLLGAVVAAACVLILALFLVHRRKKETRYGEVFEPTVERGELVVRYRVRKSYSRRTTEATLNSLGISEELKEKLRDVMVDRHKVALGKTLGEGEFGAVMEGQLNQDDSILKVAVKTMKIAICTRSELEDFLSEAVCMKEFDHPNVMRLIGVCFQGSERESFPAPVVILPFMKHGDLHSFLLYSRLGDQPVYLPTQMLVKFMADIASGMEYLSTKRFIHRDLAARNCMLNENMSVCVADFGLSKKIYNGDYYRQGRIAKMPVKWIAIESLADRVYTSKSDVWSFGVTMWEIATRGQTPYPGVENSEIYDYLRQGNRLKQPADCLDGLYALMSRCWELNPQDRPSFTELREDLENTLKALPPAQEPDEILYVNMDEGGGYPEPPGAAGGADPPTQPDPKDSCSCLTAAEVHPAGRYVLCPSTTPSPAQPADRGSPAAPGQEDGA
Protocol: (§1) The inhibitory activities of standards towards MerTK, Axl, Tyro3 and Flt3 were determined in our in-house microcapillary electrophoresis (MCE) assays.
(§2) Microcapillary Electrophoresis (MCE) Assays were performed with literature method. […] All reactions were terminated by addition of 20 µL of 70 mM EDTA. After an 180 min incubation, phosphorylated and unphosphorylated substrate peptides (Table 2) were separated in buffer supplemented with 1 x CR-8 on a LabChip EZ Reader equipped with a 12-sipper chip. Data were analyzed using EZ Reader software.

[2] = molecular target: T2, Flt3 (Homo sapiens, UniProt P36888); test: Microcapillary electrophoresis (MCE) kinase assay, Flt3; details: ATP at Km, mean of two or more independent assays
T2 sequence (P36888 27-993): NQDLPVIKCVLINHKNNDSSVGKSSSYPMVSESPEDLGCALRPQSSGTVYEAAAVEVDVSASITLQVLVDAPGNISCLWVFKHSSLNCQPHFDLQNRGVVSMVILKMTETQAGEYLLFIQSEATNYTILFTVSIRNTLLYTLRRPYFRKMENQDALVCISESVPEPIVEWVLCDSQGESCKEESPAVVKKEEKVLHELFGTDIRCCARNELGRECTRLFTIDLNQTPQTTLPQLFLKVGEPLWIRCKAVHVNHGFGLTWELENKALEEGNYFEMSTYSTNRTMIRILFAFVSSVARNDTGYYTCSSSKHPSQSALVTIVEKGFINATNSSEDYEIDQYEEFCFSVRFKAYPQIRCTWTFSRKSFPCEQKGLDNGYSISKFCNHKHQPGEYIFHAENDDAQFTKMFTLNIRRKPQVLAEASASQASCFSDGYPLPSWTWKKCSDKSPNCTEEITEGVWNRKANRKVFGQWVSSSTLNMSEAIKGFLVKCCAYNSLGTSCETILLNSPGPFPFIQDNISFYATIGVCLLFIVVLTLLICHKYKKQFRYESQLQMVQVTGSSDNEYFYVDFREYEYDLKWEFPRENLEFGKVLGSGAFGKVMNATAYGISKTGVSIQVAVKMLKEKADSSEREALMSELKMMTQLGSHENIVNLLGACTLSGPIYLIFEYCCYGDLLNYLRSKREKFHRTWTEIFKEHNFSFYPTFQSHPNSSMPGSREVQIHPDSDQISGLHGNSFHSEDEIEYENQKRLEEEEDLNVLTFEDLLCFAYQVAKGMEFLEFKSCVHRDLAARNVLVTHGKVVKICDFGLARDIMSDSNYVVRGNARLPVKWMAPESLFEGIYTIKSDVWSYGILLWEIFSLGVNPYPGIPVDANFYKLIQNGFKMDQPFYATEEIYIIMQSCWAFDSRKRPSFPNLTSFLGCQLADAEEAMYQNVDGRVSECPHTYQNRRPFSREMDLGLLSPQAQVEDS
Protocol: as §1, §2

[3] = molecular target: T3, MerTK (Homo sapiens, UniProt Q12866); test: Microcapillary electrophoresis (MCE) kinase assay, MerTK; details: for IC50: MCE assay, ATP at Km, mean of two or more independent assays; for selectivity over Axl, Tyro3 and Flt3: MerTK versus Axl, Tyro3, Flt3 in MCE assays
T3 sequence (Q12866 21-999): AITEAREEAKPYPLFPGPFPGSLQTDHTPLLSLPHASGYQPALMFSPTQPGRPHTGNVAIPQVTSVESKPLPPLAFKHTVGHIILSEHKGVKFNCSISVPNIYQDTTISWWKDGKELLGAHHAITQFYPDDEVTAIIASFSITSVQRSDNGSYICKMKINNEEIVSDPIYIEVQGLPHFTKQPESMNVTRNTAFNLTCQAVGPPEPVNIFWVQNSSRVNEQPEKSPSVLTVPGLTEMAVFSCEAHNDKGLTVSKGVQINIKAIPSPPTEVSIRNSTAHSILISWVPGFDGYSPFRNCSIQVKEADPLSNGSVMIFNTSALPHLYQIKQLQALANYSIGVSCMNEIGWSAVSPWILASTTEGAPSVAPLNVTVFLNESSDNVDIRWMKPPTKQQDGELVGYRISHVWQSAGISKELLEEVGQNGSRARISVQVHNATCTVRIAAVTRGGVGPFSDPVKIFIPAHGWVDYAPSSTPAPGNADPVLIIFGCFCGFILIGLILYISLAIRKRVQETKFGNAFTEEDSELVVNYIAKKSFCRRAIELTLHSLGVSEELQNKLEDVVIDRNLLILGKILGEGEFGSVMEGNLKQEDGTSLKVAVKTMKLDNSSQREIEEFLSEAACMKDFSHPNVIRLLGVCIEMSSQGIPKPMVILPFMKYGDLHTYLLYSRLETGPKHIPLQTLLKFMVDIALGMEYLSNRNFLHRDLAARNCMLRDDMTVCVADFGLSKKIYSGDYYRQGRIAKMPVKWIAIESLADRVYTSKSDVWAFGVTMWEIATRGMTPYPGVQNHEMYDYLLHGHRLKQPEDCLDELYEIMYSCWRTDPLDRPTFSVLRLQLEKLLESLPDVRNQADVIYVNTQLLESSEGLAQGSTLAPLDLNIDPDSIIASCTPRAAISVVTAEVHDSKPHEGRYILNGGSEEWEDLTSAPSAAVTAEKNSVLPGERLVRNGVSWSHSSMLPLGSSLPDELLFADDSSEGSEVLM
Protocol: as §1, §2

Structure (SMILES)	IC50 [1] [nM]	IC50 [2] [nM]	IC50 [3] [nM]	selectivity over Axl, Tyro3 and Flt3 [3]
C[C@H](Nc1ncc2c(C3CCN(C)CC3)cn([C@H]3CC[C@H](O)CC3)c2n1)c1ccccc1 [MerTK-2]	1700	> 30000	61	Good selectivity
C[C@H](Nc1ncc2c(C3CCN(C(=S)Nc4ccc(CC5CN(CC(=O)O)CCN(CC(=O)O)CCN5CC(=O)O)cc4)CC3)cn([C@H]3CC[C@H](O)CC3)c2n1)c1ccccc1 (stereo partly drawn) [MerTK-4]	4100	> 30000	13	
CCC[C@H](C)Nc1ncc2c(C3CCN(CCF)CC3)cn([C@H]3CC[C@H](O)CC3)c2n1 [MerTK-5]	1100	1000	15	good selectivity
C[C@H](Nc1ncc2c(C3CCN(CCF)CC3)cn([C@H]3CC[C@H](O)CC3)c2n1)c1ccccc1 [MerTK-6]	2100	5500	37	good selectivity
